From the supplement of paper PMC9337992

How the values were obtained:
Assay in all cases: cell confluence relative to DMSO control; higher = less growth inhibition
Settings in all cases: 5 d
HCC1395 = system: HCC1395
Method: (§1)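 MS023 dose-response (9 concentrations, 40 nM to 10 uM) across TNBC cell lines. Cell confluence was monitored by IncuCyte live-cell imaging for 5 d and normalised to DMSO; n = 4 replicates.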

HCC70 = system: HCC70
Method: as §1

SUM159 = system: SUM159
Method: as §1

SUM149 = system: SUM149
Method: as §1

BT549 = system: BT549
Method: as §1

MDA-MB-157 = system: MDA-MB-157
Method: as §1

HCC38 = system: HCC38
Method: as §1

CAL120 = system: CAL120
Method: as §1

HCC3153 = system: HCC3153
Method: as §1

Hs578T = system: Hs578T
Method: as §1

MDAMB231 = system: MDAMB231
Method: as §1

MX1 = system: MX1
Method: as §1

MDA-MB468 = system: MDA-MB468
Method: as §1

HCC1806 = system: HCC1806
Method: as §1

BT20 = system: BT20
Method: as §1

MDA-MB436 = system: MDA-MB436
Method: as §1

CAL85-1 = system: CAL85-1
Method: as §1

HCC1143 = system: HCC1143
Method: as §1

CC(C)Oc1ccc(-c2c[nH]cc2CN(C)CCN)cc1 [MS023]
cell confluence [%]
Settings | log10 MS023 concentration (log10 uM): 0.09691 | log10 MS023 concentration (log10 uM): 0.39794 | log10 MS023 concentration (log10 uM): 0.69897 | log10 MS023 concentration (log10 uM): 1 | log10 MS023 concentration (log10 uM): -0.20412 | log10 MS023 concentration (log10 uM): -0.50515 | log10 MS023 concentration (log10 uM): -0.80618 | log10 MS023 concentration (log10 uM): -1.10721 | log10 MS023 concentration (log10 uM): -1.40824
BT20 | 102 | 98.2 | 99.8 | 91.7 | 100 | 102 | 101 | 93.8 | 96.5
BT549 | 91.8 | 85.7 | 61.5 | 53.4 | 99.5 | 97.3 | 103 | 109 | 98.8
CAL85-1 | 84.2 | 70.6 | 59.1 | 39.6 | 95.4 | 98.7 | 99.6 | 98.1 | 96
CAL120 | 100.06 | 100.1 | 100 | 99.59 | 100.2 | 99.99 | 100.2 | 100 | 100.1
HCC38 | 95.7 | 86.4 | 76.9 | 60.3 | 98.1 | 99.1 | 100 | 100.3 | 100.1
HCC70 | 73.3 | 67.8 | 54.4 | 39.5 | 86 | 80 | 91.3 | 89.3 | 96.6
HCC1143 | 84.3 | 52.5 | 26 | 21.1 | 82.8 | 89.9 | 96.6 | 100 | 98.5
HCC1395 | 101 | 92.8 | 70.3 | 53.3 | 102 | 107 | 107 | 108 | 108
HCC1806 | 94.2 | 97.4 | 84.6 | 66.6 | 100 | 100 | 100 | 101 | 103
HCC3153 | 95 | 85.4 | 67.3 | 51.9 | 98.1 | 98.44 | 99.3 | 99.5 | 98.93
Hs578T | 99.47 | 97.79 | 89.9 | 79.6 | 99.79 | 99.921 | 99.933 | 99.898 | 99.921
MDA-MB436 | 70.9 | 33.6 | 24.4 | 22.9 | 78.1 | 82.9 | 97.9 | 96.2 | 100
MDA-MB468 | 58.7 | 35.8 | 36.3 | 25.3 | 79.5 | 95.1 | 94.8 | 96.2 | 98.5
MDA-MB-157 | 93.1 | 93.3 | 88.9 | 81.4 | 95.6 | 101 | 99.7 | 100 | 98.2
MDAMB231 | 96.77 | 88.2 | 71 | 61.1 | 99.56 | 99.8 | 99.9 | 99.943 | 99.978
MX1 | 93.6 | 83.1 | 48.8 | 33.3 | 95.8 | 100 | 99.8 | 97.8 | 98.4
SUM149 | 94.1 | 79.9 | 53.5 | 38.4 | 99.14 | 98.7 | 97.9 | 99.1 | 95.4
SUM159 | 93 | 49.6 | 25.1 | 26.3 | 98.2 | 99.11 | 99.03 | 99.4 | 98.1
